Values of other authors, collected in US11346820B2, “HPLC-PDA method and uses thereof in phytoestrogen measurement” (The Board Of Regents, The University of Texas System, priority 2019, dated 2022).
Read-outs that look alike come from different tables or passages of the source.

Conditions: nonrepresentative subset of adults, N=199, Valentin-Blasini, et al.

| means recovered [ng/mL] | means recovered (units converted) [µmol/L] | SMILES |
| --- | --- | --- |
| 36 | 0.148 | Oc1ccc([C@H]2COc3cc(O)ccc3C2)cc1 (racemic) [Equol] |
| 129 | 0.477 | O=c1c(-c2ccc(O)cc2)coc2cc(O)cc(O)c12 [Genistein] |
